From the OPERA property sets (Mansouri et al. 2018)

SMILES: O=C(Nc1ccccc1)c1cc(N2CC2)c([N+](=O)[O-])cc1[N+](=O)[O-]
- logP: 2.23

SMILES: Cc1ccc(NC2=NCCN2)c(C)c1
- logP: 1.79

SMILES: CC1=Nc2c([N+](=O)[O-])cc(Cl)cc2S(=O)(=O)N1
- logP: 0.85

SMILES: CCOC(=O)C(C#N)=NNc1ccc(Cl)c(Cl)c1
- logP: 4.66

SMILES: Cn1nnc2ccccc21
- logP: 1.13

SMILES: COc1cc(OC)c(N=C2NCCN2)cc1Cl
- logP: 1.38

SMILES: COc1cc(CC(C)N)cc(OC)c1OC (stereo unspecified)
- logP: 1.21

SMILES: COC(=O)C(C#N)=NNc1ccc(C(F)(F)F)cc1[N+](=O)[O-]
- logP: 3.44

SMILES: N=C(N)NC(=O)Nc1ccc([N+](=O)[O-])c(Cl)c1
- logP: 1.79

SMILES: ClC1=CC(Cl)C(Cl)C(Cl)C1 (stereo unspecified)
- logP: 3.72

SMILES: CNC(=O)Oc1ccc(S(C)(=O)=O)cc1
- logP: 0.34

SMILES: NC1CC2OC1c1ccccc12 (stereo unspecified)
- logP: 0.75

SMILES: C[N+](C)(C)Cc1cccc([N+](=O)[O-])c1.[Br-]
- logP: -2.66

SMILES: C=CCC1(C2=CCCC2)C(=O)NC(=O)N(C)C1=O (stereo unspecified)
- logP: 1.89

SMILES: CN(C)c1ccc(N(C)C)nn1
- logP: 0.99

SMILES: CN(C)CC(=O)NCc1ccccc1
- logP: 1.11

SMILES: O=C(O)COc1cccc(SC(F)(F)F)c1
- logP: 2.86

SMILES: O=S1(=O)N=C(c2ccccc2)Nc2ccccc21
- logP: 1.78

SMILES: CCOc1cc(Cc2cnc(N)nc2N)cc(OCC)c1C(=O)CS(C)(=O)=O
- logP: 0.79

SMILES: CN(C)c1ccc2c(c1)C(c1ccccc1)=NCC(=O)N2
- logP: 2.43

SMILES: O=[N+]([O-])c1ccc(C=Cc2nccc(Cl)n2)o1
- logP: 1.31

SMILES: O=CNC=Cc1ccccc1
- logP: 1.95

SMILES: Cc1ccc(C(C)C)c(OC2OC(CO)C(O)C(O)C2O)c1 (stereo unspecified)
- logP: 1.07

SMILES: Cc1cccc2c1ncc[n+]2[O-]
- logP: 1.2

SMILES: C#CC(C=CCl)(CC)OC(N)=O (stereo unspecified)
- logP: 1.71

SMILES: COC(=O)C(C#N)=NNc1cc(C#N)ccc1C#N
- logP: 2.81

SMILES: O=[N+]([O-])c1nccn1CC(O)COc1ccccc1 (stereo unspecified)
- logP: 1.43

SMILES: CCc1cnc(C=Cc2ccc([N+](=O)[O-])o2)nc1
- logP: 1.55

SMILES: O=C1NC(=O)C(=Cc2ccc([N+](=O)[O-])o2)S1
- logP: 0.63

SMILES: CC1=C(C(=O)O)N2C(=O)C(NC(=O)Cc3cccs3)C2SC1 (stereo unspecified)
- logP: 0.61

SMILES: C=Cc1cnc([N+](=O)[O-])n1C
- logP: 0.64

SMILES: COc1cc(Cc2cnc(N)nc2N)cc(O)c1O
- logP: -0.31

SMILES: COCN1C(=O)CN=C(c2ccccc2F)c2cc(N)ccc21
- logP: 1.31

SMILES: CC1=Nc2cc(C)ccc2S(=O)(=O)N1
- logP: 0.74

SMILES: CN(C)Cc1ccco1
- logP: 1.19

SMILES: NS(=O)(=O)c1cc2c(cc1[N+](=O)[O-])NCNS2(=O)=O
- logP: 0.2

SMILES: COc1ccc(C(N)=O)cc1N=NN(C)C
- logP: 0.44

SMILES: CN(C)C(=O)c1cc(N2CC2)c([N+](=O)[O-])cc1[N+](=O)[O-]
- logP: 0.63

SMILES: CS(=O)(=O)c1cccc(OCC(=O)O)c1
- logP: 0.01

SMILES: CCOC(=O)c1ccc2cccccc1-2
- logP: 3.83

SMILES: CCCc1nnc(SC)n(N)c1=O
- logP: 0.93

SMILES: CCC(C)c1ccccc1OC(=O)N(C)C (stereo unspecified)
- logP: 3.31

SMILES: CNC(=O)Oc1ccc(C(C)(C)C)c(C)c1
- logP: 3.38

SMILES: COc1cc(-n2[nH]c(C)cc2=O)ncn1
- logP: 0.99

SMILES: CC1=CC(=O)N2C=CCCC2(C)N1 (stereo unspecified)
- logP: 0.69

SMILES: O=C(O)c1ccccc1NCCO
- logP: 1.35

SMILES: Clc1cc(Cl)c(N=C2NCCN2)c(Cl)c1
- logP: 2.18

SMILES: Nc1cccc(O[Si]23OCCN(CCO2)CCO3)c1
- logP: -1.15

SMILES: CC1C2CCC3C(O)C2(CC(O)C2(O)C1CC(O)C2(C)C)CC3(C)O (stereo unspecified)
- logP: 1.51

SMILES: CCOC(=O)C(C#N)=NNc1cc(C(F)(F)F)ccc1Cl
- logP: 4.45

SMILES: CSc1nnc(C)c(=O)n1N
- logP: -0.16

SMILES: CC(=O)c1ccccc1NC(=O)C(Cl)Cl
- logP: 2.65

SMILES: O=C(COc1ccc(Cl)cc1)NNCc1ccccc1
- logP: 2.92

SMILES: CC(C)NC(=O)NN
- logP: -1.3

SMILES: CC(=O)Nc1ccn(C2OC(COC(C)=O)C(OC(C)=O)C2OC(C)=O)c(=O)n1 (stereo unspecified)
- logP: -0.16

SMILES: O=NN(CCF)C(=O)NC1CSCSC1
- logP: 1.54

SMILES: O=C1CN=C(c2cccc(Br)c2)c2cc(Br)ccc2N1
- logP: 3.88

SMILES: O=[N+]([O-])c1nccn1C1OC(CO)C(O)C1O (stereo unspecified)
- logP: -1.15

SMILES: CC(=O)NC1CC1c1ccccc1 (stereo unspecified)
- logP: 1.43

SMILES: O=S(=O)(Nc1ccc(F)cc1)C(F)(F)F
- logP: 3.25

SMILES: OCC1OC(Oc2ccc(I)cc2)C(O)C(O)C1O (stereo unspecified)
- logP: 0.75

SMILES: CCCCc1ccc2nc(C(F)(F)F)[nH]c2c1
- logP: 4.27

SMILES: CCCCSC(C)(C)C(N)=O
- logP: 1.81

SMILES: Cc1c([N+](=O)[O-])cc(C(N)=O)cc1[N+](=O)[O-]
- logP: 0.68

SMILES: CCCSc1nnc(C(C)C)c(=O)n1N
- logP: 2.12

SMILES: O=C(NC(CO)C(O)c1cccc([N+](=O)[O-])c1)C(Cl)Cl (stereo unspecified)
- logP: 1.15

SMILES: O=[N+]([O-])c1cnc(N=C2NCC(O)CN2)s1 (stereo unspecified)
- logP: 0.74

SMILES: NC(=S)NN=Cc1cccc(O)c1
- logP: 1.61

SMILES: CCCCCCOC(=O)N(C)SN(C)C(=O)ON=C(C)SC
- logP: 4.2

SMILES: Cc1ccoc1CN(C)C
- logP: 1.63

SMILES: CC(C)NC(=O)C=Cc1ncc([N+](=O)[O-])s1
- logP: 1.76

SMILES: CC/N=C(N)/N=C(\N)Nc1ccc(Cl)cc1
- logP: 2.14

SMILES: COc1ccc(Cc2cnc(N)nc2N)cc1C
- logP: 1.91

SMILES: COc1cc(Cc2cnc(N)nc2N)ccc1Cl
- logP: 1.87

SMILES: Nc1nnc(S(N)(=O)=O)s1
- logP: -0.9

SMILES: CCCCCCCCCCCCS(=O)(=O)[O-].[Na+]
- logP: 0.96

SMILES: Clc1cccc(NC2=NCCN2)c1Cl
- logP: 1.94

SMILES: CNC(=O)Oc1cccc(C(F)(F)F)c1
- logP: 2.37

SMILES: COc1ccccc1C(=O)NCCCCN
- logP: 0.58

SMILES: c1ccc(Sc2nnc[nH]2)cc1
- logP: 1.45

SMILES: OCCCCCCn1nnc2ccccc21
- logP: 1.71

SMILES: CCC(C)C(=O)NN (stereo unspecified)
- logP: -0.33

SMILES: Cn1ncc2c([N+](=O)[O-])cc([N+](=O)[O-])cc21
- logP: 1.63

SMILES: CSC(C)=NOC(=O)N(C)SN(C)C(=O)c1ccc(C)cc1
- logP: 2.5

SMILES: COc1ccc(Cc2cnc(N)nc2N)cc1OC
- logP: 0.97

SMILES: CCN(CC)CCNC(=O)c1cc(F)ccc1OC
- logP: 2.62

SMILES: COc1cc(C)nn1-c1ccncn1
- logP: 0.5

SMILES: CC1(C)N=C(N)N=C(N)N1c1ccc(I)cc1
- logP: 1.39

SMILES: O=S(=O)(Nc1ccccc1)c1cccc2cccnc12
- logP: 1.75

SMILES: COc1cc(CC(=O)O)ccc1OCC1CCCCC1
- logP: 3.35

SMILES: CC(C)NNC(=O)C(C)(C)Oc1ccc(Cl)cc1
- logP: 2.56

SMILES: CON(C)C(=O)Nc1ccc(C(C)C)cc1
- logP: 2.95

SMILES: CSC(C)=NOC(=O)N(C)SN(C)C(=O)c1ccccc1Cl
- logP: 2.5

SMILES: Cn1cnc([N+](=O)[O-])c1S(=O)(=O)Oc1ccccc1
- logP: 1.08

SMILES: Cc1ccnc2c(O)ccc(C)c12
- logP: 2.71

SMILES: O=c1cc(-c2ccc([N+](=O)[O-])o2)sc(=O)[nH]1
- logP: 0.55

SMILES: CC1CNC(=Nc2ncc([N+](=O)[O-])s2)N1C (stereo unspecified)
- logP: 2.02

SMILES: Oc1cc(Cl)c(NC2=NCCN2)c(Cl)c1
- logP: 1.52

SMILES: CCN(CC)c1ccc(CO)cc1
- logP: 2.29

SMILES: CC(=O)C(C#N)=NNc1ccc2c(c1)OC(F)(F)C(F)(F)O2
- logP: 5.31

SMILES: CCCCOc1cccc(N2C(N)=NC(N)=NC2(C)C)c1
- logP: 2.03

SMILES: NC1CC2CC1c1ccccc12 (stereo unspecified)
- logP: 2

SMILES: CCSCC1=Nc2cc(Cl)ccc2S(=O)(=O)N1
- logP: 2.26

SMILES: CCNNC(=O)COc1ccc(Cl)cc1
- logP: 1.73

SMILES: COC(=O)C(C#N)=NNc1ccc2c(c1)OC(F)(F)C(F)(F)O2
- logP: 4.86

SMILES: O=[N+]([O-])c1cnc(N=C2OCCN2CCO)s1
- logP: 0.43

SMILES: COc1cc(Cc2cnc(N)nc2N)ccc1Nc1ccccc1
- logP: 3.42

SMILES: CCCCN(SN(C)C(=O)ON=C(C)SC)C(C)=O
- logP: 2.4

SMILES: O=C1CN=C(c2ccccc2F)c2cc(Cl)ccc2N1CC(O)CO (stereo unspecified)
- logP: 1.51

SMILES: Cc1cc(NC(=O)NC(=N)N)ccc1Cl
- logP: 2.19

SMILES: NC(=O)Nc1cnc2ccccc2n1
- logP: 1.3

SMILES: COc1c(Cl)cc(Cc2cnc(N)nc2N)cc1Cl
- logP: 2.78

SMILES: CCCC(CO)n1cnc2c(N)ncnc21 (stereo unspecified)
- logP: 0.66

SMILES: CC1CCN(N=O)CC1
- logP: 1.05

SMILES: CN1CCN(C(=O)c2ccccc2)CC1
- logP: 0.35

SMILES: CN(C(=O)COc1ccccc1)c1ccccc1
- logP: 2.25

SMILES: COc1ccccc1N1C(=O)CCC1=O
- logP: -0.02

SMILES: CCOP(=S)(OCC)Oc1ccc(SC)cc1Cl
- logP: 4.4

SMILES: CN(C)c1ncnc2sccc12
- logP: 1.82

SMILES: CCOC(=O)C(=Cc1ccc2c(c1)OCO2)C(C)=O
- logP: 2.35

SMILES: CN(C)c1ccc2c(c1)C(c1ccccc1)=NCC(=O)N2C
- logP: 2.63

SMILES: Cc1nonc1-c1ccccn1
- logP: 2.09

SMILES: COc1ccccc1NCC#N
- logP: 1.3

SMILES: CN(C)C1=NC(=O)C(=Cc2ccc([N+](=O)[O-])o2)S1
- logP: 1.14

SMILES: Clc1ccc(Cl)c(-c2ccccc2)c1Cl
- logP: 5.67

SMILES: CC(=O)C(C#N)=NNc1ccccc1Cl
- logP: 4

SMILES: CCOc1ncnc(NS(=O)(=O)c2ccc(N)cc2)c1OC
- logP: 1.18

SMILES: O=C(O)Cc1ccc(OCc2ccccc2)cc1
- logP: 2.72

SMILES: Clc1cc(Cl)c(N=C2NCCN2)cc1Cl
- logP: 2.11

SMILES: COc1cc(Cc2cnc(N)nc2N)cc(OC)c1I
- logP: 2.4

SMILES: CN1C(=Nc2ncc([N+](=O)[O-])s2)NCC1(C)C
- logP: 2.35

SMILES: O=C(COc1ccccc1)N1CCCCC1
- logP: 1.81

SMILES: O=S(=O)(Nc1cccc(C(F)(F)F)c1)C(F)(F)F
- logP: 4.5

SMILES: Cc1cccc2c([N+](=O)[O-])cc[n+]([O-])c12
- logP: 1.59

SMILES: C=CCc1c(OCC)cc(Cc2cnc(N)nc2N)cc1OCC
- logP: 3.08

SMILES: NS(=O)(=O)c1ccc2c(c1)S(=O)(=O)NC(Cc1ccccc1)N2 (stereo unspecified)
- logP: 1.03

SMILES: Cn1c(C(C)(C)O)cnc1[N+](=O)[O-]
- logP: 0.43

SMILES: CCOP(=S)(OCC)Oc1ccc(S(C)(=O)=O)cc1
- logP: 2.56

SMILES: CC1NC(=Nc2ncc([N+](=O)[O-])s2)OC1(C)C (stereo unspecified)
- logP: 1.88

SMILES: O=NN(CCCl)C(=O)NC1CCC(=O)NC1=O (stereo unspecified)
- logP: 0.37

SMILES: CSc1nc(C)cc(C)n1
- logP: 1.86

SMILES: CCOC(=O)CCCCCn1nnc2ccccc21
- logP: 2.68

SMILES: Clc1ccc(-c2ccc(Cl)cc2Cl)cc1
- logP: 5.62

SMILES: c1cncc(CCN2CCCCC2)c1
- logP: 1.66

SMILES: CNN=CCCc1ccccc1
- logP: 1

SMILES: CN(N=O)C1CCCCC1
- logP: 1.43

SMILES: COc1cccc(NS(=O)(=O)C(F)(F)F)c1
- logP: 3.13

SMILES: CCN(C)c1nc(N(C)CC)nc(N(C)CC)n1
- logP: 3.9

SMILES: CCCCc1nnc(N)o1
- logP: 0.65

SMILES: CCOP(=S)(OCC)SCS(=O)C(C)(C)C (stereo unspecified)
- logP: 2.21

SMILES: O=C(O)c1cccc(CSc2ccccc2)c1O
- logP: 4.28
